Patent publication US11026940B2, “Compositions for the mobilization, homing, expansion and differentiation of stem cells and methods of using the same” (Ampio Pharmaceuticals, Inc., priority 2013, dated 2021)
Values joined by “and” are separate entries in the source; they are usually repeats but may differ in a detail not shown here. Equal entries are not always repeated.

How the values were obtained:
Assay type in all cases: cell-based, human
MMP13 = assay: Stem cell chondrogenesis, real time PCR gene expression: MMP13; details: for Mean regulation: vs saline; for Mean ΔCp / ΔCp: MMP13 vs GAPDH
Experimental: (§1) • Stem Cells: Bone marrow derived human mesenchymal stem cells: Passage 5 Bone marrow derived human mesenchymal stem cells (HUXMA-01001, Cyagen Biosciences, Sunnyvale Calif.) • Mesenchymal Stem Cell Chondrogenic Differentiation medium (GUXMX-90041, Cyagen Biosciences, Sunnyvale Calif.) • TheraPEAK MSCGM chemically defined Stem cell medium (190632 Lonza) • 1 mM Dexamethasone acetate and mifepristone in absolute ethanol (Sigma) • Saline or 0.9% Sodium chloride for injection ZR Flush (Excelsior Medical, Neptune N.J.) • Sterile filtered 0.6 mM sodium caprylate in saline (sigma) • Sterile filtered 3 mM NAT in saline (sigma); To prepare, heat at 60° C. for 30 minutes then sonicate for 5 minutes. • Sterile filtered 10 mM DADKP in saline • 0.2 μM syringe filters • Hepes buffered saline, Trypsin/EDTA, Trypsin neutralizing solution (Lonza reagent pack) • 182 cm2 tissue culture flasks • pipettes and sterile tips • Tissue culture hood, humidified CO2 incubator, water or bead bath • 24 well tissue culture plates • Qiagen RNeasy plus spin columns (Qiagen 74134) • Qiagen RT2 qPCR primer pairs for Collagen 2A1, MMP13, TIMP1, Aggrecan, GAPDH, and Actin B • Roche Sybr green I master mix and Invitrogen Superscript VILO master mix. • Roche 480 lightcycler
(§2) The following stock drug treatment solutions were prepared in saline for injection and warmed to 37° C. in bath: • 4 μM dexamethasone • 4 μM mifepristone • 3 mM NAT • 0.6 mM caprylate • 80 μM DADKP • Mix of 3 mM NAT, 0.6 mM caprylate, 80 μM DADKP (“Ampion” mix)
(§3) Cyagen Chondrogenic Differentiation medium was prepared by manufacturer protocols but excluding dexamethasone and TGF beta 3 supplements, and warmed to 37° C. in bath.
(§4) The treatment protocol included expanding 5 HUXMA stem cells in 182 cm^2 flasks containing 40 mls TheraPEAK™ MSCGM to 80-90% confluence. Cells were trypsinized from the flasks and a 1.0×10^7 cell suspension of HUXMA stem cells was warmed in Cyagen Chondrogenic Differentiation medium. 20 μl of warmed cell suspension was spotted in the middle of each well of a 24-well tissue culture plate (200,000 cells per spot), and incubated at 37° C. and 5% CO2 for one hour.
(§5) The plates were removed from the incubator and an additional 720 μl chondrogenic medium was added to each well. 250 μl saline, or drug solutions were added to the appropriate wells in triplicate (bringing the final drug dilution to one-quarter of the stock drug treatment solution concentrations). 10 μl of TGF beta 3 solution (supplied by Cyagen) was added to each well, and the plates were returned to the incubator.
(§6) RNA isolation and analysis was conducted for all plates as follows at days 7, 14, and 22 post treatment (with the described medium exchanges). […] Qiagen RNeasy plus lysis buffer (with 2mercaptoethanol) was added to each well and gently shaken for 10 minutes. The lysed cell suspensions from each well were transferred to Qiashredder columns and spun at 14,000 rpm for 2 minutes. RNA isolation proceeded by RNeasy™ plus manufacturer's protocol. RNA was eluted from the Qiagen columns using 25 μl RNase free water.
(§7) cDNA synthesis and real time PCR was conducted as follows. First strand synthesis of cDNA from all samples was performed in 20 μl total volume using 10 μl isolated RNA. All cDNA reactions were then diluted with 30 μl nuclease free water. Real time PCR was then performed using 5 μl diluted cDNA, Roche Syber green master mix, and Qiagen RT^2 gPCR™ primer pairs in 20 μl total reaction volume. Relative gene expression was determined by delta deta Ct method.

Aggrecan = assay: Stem cell chondrogenesis, real time PCR gene expression: Aggrecan; details: Day 22; for Mean ΔCp / ΔCp: Aggrecan vs Actin; for Mean regulation / regulation: vs saline
Experimental: as §1, §2, §3, §4, §5, §6, §7

SOX9 = assay: Stem cell chondrogenesis, real time PCR gene expression: SOX9; details: Day 14
Experimental: The treatment protocol included expanding 5 HUXMA stem cells in 182 cm^2 flasks containing 40 […] to 80-90% confluence. Cells were trypsinized from the flasks and a 1.0×10^7 cell suspension of HUXMA stem cells was warmed in Cyagen Chondrogenic Differentiation medium. 20 μl of warmed cell suspension was spotted in the middle of each well of a 24-well tissue culture plate (200,000 cells per spot), and incubated at 37° C. and 5% CO2 for one hour. […] Medium exchanges were performed every 3-4 days by aspirating the medium from the wells and replacing with fresh chondrogenic medium, diluted stocks, and TGF beta 3, as described above. […] Medium from the wells was removed and saved for further protein analysis. Qiagen RNeasy plus lysis buffer (with 2mercaptoethanol) was added to each well and gently shaken for 10 minutes. The lysed cell suspensions from each well were transferred to Qiashredder columns and spun at 14,000 rpm for 2 minutes. RNA isolation proceeded by RNeasyTM plus manufacturer's protocol. RNA was eluted from the Qiagen columns using 25 μl RNase free water. cDNA synthesis and real time PCR was conducted as follows. First strand synthesis of cDNA from all samples was performed in 20 μl total volume using 10 μl isolated RNA. All cDNA reactions were then diluted with 30 μl nuclease free water. Real time PCR was then performed using 5 μl diluted cDNA, Roche Syber green master mix, and Qiagen RT^2 gPCRTM primer pairs in 20 μl total reaction volume.

TIMP1 = assay: Stem cell chondrogenesis, real time PCR gene expression: TIMP1; details: Day 22; for Mean ΔCp / ΔCp: TIMP1 vs Actin
Experimental: as §1, §2, §3, §4, §5, §6, §7

Collagen 2A1 = assay: Stem cell chondrogenesis, real time PCR gene expression: Collagen 2A1; details: for Mean regulation / regulation: vs saline; for Mean ΔCp / ΔCp: Collagen 2A1 vs GAPDH; for regulation, Collagen 2A1 / Mean regulation, Collagen 2A1: fold regulation vs saline; for regulation, Collagen 2A1 / ΔCp, Collagen 2A1 / 2^-ΔΔCp vs saline, Collagen 2A1 / ΔΔCp vs saline, Collagen 2A1: single replicate well; for Mean regulation, Collagen 2A1 / Mean ΔCp, Collagen 2A1: triplicate wells; for ΔCp, Collagen 2A1: human bone marrow MSC, chondrogenic medium + TGF beta 3; for ΔCp, Collagen 2A1 / 2^-ΔΔCp vs saline, Collagen 2A1 / ΔΔCp vs saline, Collagen 2A1 / Mean ΔCp, Collagen 2A1: vs Actin
Experimental: as §1, §2, §3, §4, §5, §6, §7

[1] = Day 7, vs Actin, single replicate well
[2] = vs Actin, single replicate well

SMILES: CC(=O)OCC(=O)[C@@]1(O)[C@H](C)C[C@H]2[C@@H]3CCC4=CC(=O)C=C[C@]4(C)[C@@]3(F)[C@@H](O)C[C@@]21C [Dexamethasone, Dexamethasone acetate]
- regulation, MMP13 (MMP13; Day 7, fold regulation vs saline, single replicate well): −1.62 and 1.64 and 1.33
- Mean regulation, MMP13 (MMP13; Day 7, fold regulation vs saline, triplicate wells): 0.45
- ΔCp, MMP13 (MMP13; Day 7, human bone marrow MSC, chondrogenic medium + TGF beta 3, vs Actin, single replicate well): 5.33 and 3.92 and 4.23
- 2^-ΔΔCp vs saline, MMP13 (MMP13; [1]): 0.6184 and 1.6434 and 1.3256
- ΔΔCp vs saline, MMP13 (MMP13; [1]): 0.693 and −0.72 and −0.41
- Mean ΔCp, MMP13 (MMP13; Day 7, vs Actin, triplicate wells): 4.493
- Cp, MMP13 (MMP13; MMP13, Day 22, Table 12): 20.77 and 20.68 and 20.35
- ΔΔCp vs saline (MMP13; MMP13, Day 22, Table 12): 1.357 and 1.277 and 1.687
- 2^-ΔΔCp vs saline (MMP13; MMP13, Day 22, Table 16): 0.3905 and 0.4127 and 0.3106
- Cp, MMP13 (MMP13; MMP13, Day 22, Table 16): 20.77 and 20.68 and 20.35
- ΔΔCp vs saline (MMP13; MMP13, Day 22, Table 16): 1.357 and 1.277 and 1.687
- Mean regulation (MMP13; MMP13, Day 22, Table 12): −2.73
- Mean regulation (MMP13; MMP13, Day 22, Table 16): −2.73
- Mean ΔCp (MMP13; Day 22, Table 12): 4.433
- ΔCp (MMP13; Day 22, Table 12): 4.35 and 4.27 and 4.68
- Mean ΔCp (MMP13; Day 22, Table 16): 4.433
- ΔCp (MMP13; Day 22, Table 16): 4.35 and 4.27 and 4.68
- Mean ΔCp (Aggrecan; Table 12): 6.523
- ΔCp (Aggrecan; Table 12): 6.28 and 6.69 and 6.6
- Mean ΔCp (Aggrecan; Table 16): 6.523
- ΔCp (Aggrecan; Table 16): 6.28 and 6.69 and 6.6
- 2-ΔΔCp vs saline (Aggrecan; Aggrecan, Table 12): 15.313 and 11.525 and 12.267
- Cp Agg (Aggrecan; Aggrecan, Table 12): 20.48 and 20.68 and 20.44
- 2^-ΔΔCp vs saline (Aggrecan; Aggrecan, Table 16): 15.313 and 11.525 and 12.267
- Cp Agg (Aggrecan; Aggrecan, Table 16): 20.48 and 20.68 and 20.44
- Mean regulation (Aggrecan; Aggrecan, Table 12): 13.03
- regulation (Aggrecan; Aggrecan, Table 12): 15.31 and 11.52 and 12.27
- Mean regulation (Aggrecan; Aggrecan, Table 16): 13.03
- regulation (Aggrecan; Aggrecan, Table 16): 15.31 and 11.52 and 12.27
- regulation, SOX9 (SOX9; fold regulation vs saline, single replicate well): −2.04 and −1.24 and −1.80
- Mean regulation, SOX9 (SOX9; fold regulation vs saline, triplicate wells): −1.69
- ΔCp, SOX9 (SOX9; human bone marrow MSC, chondrogenic medium + TGF beta 3, vs Actin, single replicate well): 8.21 and 7.49 and 8.03
- 2^-ΔΔCp vs saline, SOX9 (SOX9; [2]): 0.4897 and 0.8066 and 0.5548
- ΔΔCp vs saline, SOX9 (SOX9; [2]): 1.03 and 0.31 and 0.85
- Mean ΔCp, SOX9 (SOX9; vs Actin, triplicate wells): 7.91
- Cp TIMP1 (TIMP1; TIMP1, Table 12): 17.35 and 16.81
- 2-^ΔΔCp vs saline (TIMP1; TIMP1, Table 16): 1.5333 and 1.3256 and 1.7371
- Cp TIMP1 (TIMP1; TIMP1, Table 16): 17.35 and 16.81
- Mean regulation (TIMP1; TIMP1, vs saline, Table 12): 1.53
- regulation (TIMP1; TIMP1, vs saline, Table 12): 1.33 and 1.74 and 1.53
- regulation (TIMP1; TIMP1, vs saline, Table 16): 1.53 and 1.33 and 1.74
- Mean ΔCp (TIMP1; Table 12): 3.16
- ΔCp (TIMP1; Table 12): 3.36 and 2.97 and 3.15
- Mean ΔCp (TIMP1; Table 16): 3.16
- ΔCp (TIMP1; Table 16): 3.15 and 3.36 and 2.97
- 2-^ΔΔCP vs saline (Collagen 2A1; Collagen 2A1, Day 22, Table 12): 141.7 and 196.27 and 168.51
- Cp Coll (Collagen 2A1; Collagen 2A1, Day 22, Table 12): 22.42 and 21.94 and 21.42
- 2^-ΔΔCp vs saline (Collagen 2A1; Collagen 2A1, Day 22, Table 16): 141.7 and 196.27 and 168.51
- Cp Coll (Collagen 2A1; Collagen 2A1, Day 22, Table 16): 22.42 and 21.94 and 21.42
- Mean regulation (Collagen 2A1; Collagen 2A1, Day 22, Table 12): 168.82
- regulation (Collagen 2A1; Collagen 2A1, Day 22, Table 12): 141.70 and 196.27 and 168.51
- Mean regulation (Collagen 2A1; Collagen 2A1, Day 22, Table 16): 168.82
- regulation (Collagen 2A1; Collagen 2A1, Day 22, Table 16): 141.70 and 196.27 and 168.51
- Mean ΔCp (Collagen 2A1; Day 22, Table 12): 5.76
- ΔCp (Collagen 2A1; Day 22, Table 12): 6 and 5.53 and 5.75
- Mean ΔCp (Collagen 2A1; Day 22, Table 16): 5.76
- ΔCp (Collagen 2A1; Day 22, Table 16): 6 and 5.53 and 5.75
- regulation, Collagen 2A1 (Collagen 2A1; Day 7): −1.01 and 2.61 and 2.72
- Mean regulation, Collagen 2A1 (Collagen 2A1; Day 7): 1.44
- ΔCp, Collagen 2A1 (Collagen 2A1; Day 7): 6.75 and 5.35 and 5.29
- 2^-ΔΔCp vs saline, Collagen 2A1 (Collagen 2A1; Day 7): 0.9885 and 2.6087 and 2.7195
- ΔΔCp vs saline, Collagen 2A1 (Collagen 2A1; Day 7): 0.017 and −1.38 and −1.44
- Mean ΔCp, Collagen 2A1 (Collagen 2A1; Day 7): 5.797
- regulation, Collagen 2A1 (Collagen 2A1; Day 14): 7.29 and 10.39 and 6.57
- Mean regulation, Collagen 2A1 (Collagen 2A1; Day 14): 8.08
- ΔCp, Collagen 2A1 (Collagen 2A1; Day 14): 8.19 and 7.68 and 8.34
- 2^-ΔΔCp vs saline, Collagen 2A1 (Collagen 2A1; Day 14): 7.2938 and 10.387 and 6.5735
- ΔΔCp vs saline, Collagen 2A1 (Collagen 2A1; Day 14): −2.87 and −3.38 and −2.72
- Mean ΔCp, Collagen 2A1 (Collagen 2A1; Day 14): 8.07
